Experimental data as given in PubChem BioAssay (NCI).
“And” between values parts separate entries of the source, which are not always exact repeats. Equal entries are not always repeated.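 Step 1: Grow cells in 96-well plates. Step 2: Expose to compound for 48 hours at 5 concentrations. Step 3: Interpolate endpoints linearly; if unreached, use highest concentration. GI50 = concentration required for 50% inhibition of growth. Definition used: TGI = concentration required for complete inhibition of growth.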

Tests used:
Assay in all cases: DTP human tumour cell line panel, 48 h
KM12 colon = tested on: KM12 colon
U251 CNS = tested on: U251 CNS
SK-MEL-2 melanoma = tested on: SK-MEL-2 melanoma
HT29 colon = tested on: HT29 colon
SF-539 CNS = tested on: SF-539 CNS
HOP-62 NSCLC = tested on: HOP-62 NSCLC
SW-620 colon = tested on: SW-620 colon
NCI/ADR-RES ovarian = tested on: NCI/ADR-RES ovarian
DU-145 prostate = tested on: DU-145 prostate
T-47D breast = tested on: T-47D breast

| Compound | TGI (KM12 colon) | TGI (U251 CNS) | TGI (SK-MEL-2 melanoma) | TGI (HT29 colon) | TGI (SF-539 CNS) | TGI (HOP-62 NSCLC) | TGI (SW-620 colon) | TGI (NCI/ADR-RES ovarian) | TGI (DU-145 prostate) | GI50 (NCI/ADR-RES ovarian) | GI50 (KM12 colon) | GI50 (U251 CNS) | GI50 (T-47D breast) | TGI (T-47D breast) | GI50 (HT29 colon) | GI50 (DU-145 prostate) | GI50 (SF-539 CNS) | GI50 (HOP-62 NSCLC) | GI50 (SW-620 colon) | GI50 (SK-MEL-2 melanoma) |
| --- | --- | --- | --- | --- | --- | --- | --- | --- | --- | --- | --- | --- | --- | --- | --- | --- | --- | --- | --- | --- |
| CC(=O)NNc1nc(C)c(C(=O)/C=C/c2ccccc2Cl)s1 | > 100 µM | > 100 µM | > 100 µM | > 100 µM | > 100 µM | > 100 µM | > 100 µM | – | – | – | – | – | – | – | – | – | – | – | – | – |
| COC(=O)C(C#CCCCCC#CC(NC(=O)OCc1ccccc1)(C(=O)OC)C(F)(F)F)(NC(=O)OCc1ccccc1)C(F)(F)F (stereo unspecified) | > 100 µM | > 100 µM | – | > 100 µM | > 100 µM | > 100 µM | > 100 µM | – | – | – | – | – | – | – | – | – | – | – | – | – |
| c1ccc(CN2CCC3(CC2)SSC2(CCN(Cc4ccccc4)CC2)S3)cc1 | > 100 µM | > 100 µM | > 100 µM | 43.5 µM | > 100 µM | > 100 µM | > 100 µM | > 100 µM | > 100 µM | – | – | – | – | – | – | – | – | – | – | – |
| Cc1ccc([N+](=O)[O-])cc1NC(=O)/C(=N/NC(=S)NN)C1SC(=S)NC1=O (stereo unspecified) | > 100 µM | > 100 µM | > 100 µM | > 100 µM | > 100 µM | > 100 µM | > 100 µM | – | – | – | – | – | – | – | – | – | – | – | – | – |
| COc1cc([C@@H]2c3cc4c(cc3[C@@H](OC(=O)c3ccc(N)cc3)C3COC(=O)[C@@H]32)OCO4)cc(OC)c1O (stereo partly specified) | 44.7 µM | 28.7 µM | 59.6 µM | 21.2 µM | 7.99 µM | 26.9 µM | > 95 µM | – | – | – | – | – | – | – | – | – | – | – | – | – |
| O=C(CC(=O)C1=CNc2ccccc2S1)C(=O)Nc1ccc(Cl)cc1 | > 50 µM | > 50 µM | > 50 µM | > 50 µM | > 50 µM | > 50 µM | > 50 µM | – | – | – | – | – | – | – | – | – | – | – | – | – |
| O=C(Nc1ccncc1)C(=O)c1cn(Cc2ccc(Cl)cc2)c2ccccc12 | > 100 µM | > 100 µM | – | > 100 µM | 0.0788 µM | > 100 µM | > 100 µM | > 100 µM | > 65 µM | 31.7 nM | 38.4 nM | 47.2 nM | 43.6 nM | > 100 µM | 36.3 nM | 51 nM | 27.8 nM | 59.7 nM | 33.2 nM | – |
| C1=CC=C2NCCCCCCCNC3=CC=CC=CC3=NCCCCCCCN=C2C=C1 | > 100 µM | – | > 100 µM | > 100 µM | > 100 µM | – | > 100 µM | – | – | – | – | – | – | – | – | – | – | – | – | – |
| COC1OC(CBr)C(OC(=O)c2ccccc2)C(O)C1Br (stereo unspecified) | > 100 µM | > 100 µM | – | > 100 µM | > 100 µM | > 100 µM | > 100 µM | – | – | – | – | – | – | – | – | – | – | – | – | – |
| COC1/C=C/C(C)C(C(C)C(OC)C(C)CCC(=O)C(C)C(C/C=C/N(C)C=O)OC)OC(=O)/C=C/C=C(\C)CC(OC)CC2=CC(=O)O[C@H](C2)C(C)C(OC)CC(OC)/C=C/C(C)C(OC)C1 (stereo partly specified) | – | 0.0289 µM | 0.0399 µM | – | – | 0.0449 µM and 0.0169 µM | 6.95 µM | – | – | 102 nM | 6.96 nM | 12.2 nM | 168 nM | 0.488 µM | 23.6 nM | 123 nM | – | 17.8 nM | 19.8 nM | – |
| C[C@]12CCC(=O)C=C1CC[C@@H]1C2CC[C@]2(C)Nc3c(cnn3-c3ccccc3)CC12 (stereo partly specified) | > 10 µM | > 100 µM | > 100 µM | > 100 µM | > 100 µM | > 100 µM | > 100 µM | – | – | – | – | – | – | – | – | – | – | – | – | – |
| O=C(O/C(=C(/N=Nc1ccccc1)c1ccccc1)c1ccccc1)c1ccccc1 | > 100 µM | > 100 µM | > 100 µM | > 100 µM | > 100 µM | – | > 100 µM | – | – | – | – | – | – | – | – | – | – | – | – | – |
| c1csc(-c2cn3nc(-c4c[nH]c5ccccc45)sc3n2)c1 | 10.5 µM | 17 µM | 23.8 µM | 10.2 µM | 4.6 µM | 39.9 µM | > 100 µM | > 100 µM | > 100 µM | 561 nM | 498 nM | 1210 nM | – | – | 413 nM | 2860 nM | 1490 nM | 1580 nM | 434 nM | 1080 nM |
| O=C(NC(=O)c1cn(CCN(CCO)C(=O)NCCCCCCNC(=O)N(CCO)CCn2cc(C(=O)NC(=O)OCc3ccccc3)c(=O)[nH]c2=O)c(=O)[nH]c1=O)OCc1ccccc1 | – | > 100 µM | > 100 µM | > 100 µM | > 100 µM | > 100 µM | > 100 µM | – | – | – | – | – | – | – | – | – | – | – | – | – |
| COc1ccc2c(c1)[n+]([O-])c(-c1ccc(OC)c(OC)c1)c(N)[n+]2[O-] | > 100 µM | > 100 µM | > 100 µM | > 100 µM | > 100 µM | > 100 µM | > 100 µM | – | – | – | – | – | – | – | – | – | – | – | – | – |
| O=C1C2C3C=C4c5ccccc5N(c5ccccc5)C4(C2C(=O)N1c1ccc(Cl)cc1)[C@H]1C(=O)N(c2ccc(Cl)cc2)C(=O)[C@@H]31 (stereo partly specified) | > 100 µM | > 100 µM | > 100 µM | > 100 µM | > 100 µM | > 100 µM | > 100 µM | – | – | – | – | – | – | – | – | – | – | – | – | – |
| C#CC1(O)C(COP(=O)(O)OC(COCCCCCCCCCCCCCCCCCC)COP(=O)(O)OCC2OC(n3cc(F)c(=O)[nH]c3=O)CC2O)OC(n2ccc(N)nc2=O)C1O (stereo unspecified) | > 49.8 µM and 17 µM | 17.2 µM and 20.6 µM | 1.88 µM and 3.48 µM | > 100 µM and 41.5 µM | 12.2 µM and 22.3 µM | > 86.5 µM and 33.9 µM | > 100 µM and 48.1 µM | 8.28 µM and 30.5 µM | > 100 µM | – | – | < 42.8 nM and 177 nM | – | – | – | 274 nM and 72.2 nM | – | – | – | < 49 nM and 432 nM |
| O=C1C(N2CC2)=C(N2CC2)C(=O)C(N2CC2)=C1N1CC1 | 2.72 µM | 3.18 µM | – | 15.1 µM | 1.24 µM | 1.05 µM | 6.09 µM | 1.3 µM | 0.487 µM | – | 696 nM | 275 nM | 659 nM | 23.8 µM | 181 nM | – | 104 nM | 82.2 nM | 419 nM | – |
| COc1ccc2c(=O)cc(-c3ccncc3)oc2c1OC | 96.2 µM | > 100 µM | 68.2 µM | > 100 µM | – | > 100 µM | > 100 µM | > 100 µM | > 100 µM | – | – | – | – | > 100 µM | – | – | – | – | – | – |
| CCCc1cc(=O)[nH]c(-n2nc(C)cc2C)n1 | > 100 µM | > 100 µM | 63 µM | 38.5 µM | > 100 µM | > 100 µM | > 100 µM | > 100 µM | > 100 µM | 2730 nM | 5250 nM | 1710 nM | – | – | 6680 nM | 7660 nM | 2990 nM | 5580 nM | 3930 nM | 13000 nM |
